The source of these data is patent US7132441B2, “Immunosuppressive effects of administration of a cyclooxygenase-2 inhibitor and a 5-lipoxygenase inhibitor” (G.D. Searle & Co., priority 1996, dated 2006).

This experiment concerns B10.Br mouse tailskin grafted on male C57BL/10 mice. Put plainly: Skin graft rejection time (transplantation and evaluation of graft rejection). Conditions: i.p. from day of grafting until rejection, Example 2 30 mpk/day q.d., Example 3 10 mpk/day q.d.; for Skin Graft Rejection Time, Ex. #1 Rejection: experiment #1; for Skin Graft Rejection Time, Ex. #3 Rejection: experiment #3. In kind it is in vivo. From the text: Transplantation and Evaluation of Graft Resection
The method of skin grafting used has been previously described [D. Steinmuller, Skin Grafting. Surgical Techniques in Immunology, Methods Enzymol. […] Briefly, a tailskin from an 8–12 week old male B10.Br mouse was removed and stored in cold saline. Male C57BL/10 mice were anesthetized, and their backs were shaved. The backs were scrubbed with alcohol, and a 1 cm^2 piece of skin was removed. A similar size piece of skin was cut from the tailskin of the B10.Br mouse and placed in the excised area on the C57BL/10 animal's back. A petroleum jelly coated bandage was placed over the graft and held in place by a single surgical staple. Compounds were prepared as a suspension in 0.5% methylcellulose (Sigma, St. Louis, Mo.), and 0.025% Tween® 20 (Sigma). The compounds were administered by i.p. injection in a volume of 0.1 ml beginning on the day of skin grafting and continuing until transplant rejection. […] Compounds were administered alone or as combinations of a COX-2 and 5-LO inhibitor. Bandages were left in place until 8 days post grafting. At that time they were removed, and the grafts were observed daily or signs of rejection. Rejection was determined by complete blackening or scabbing of the grafted skin.

In the case of `COc1ccc(-c2cc(C(F)F)nn2-c2ccc(S(N)(=O)=O)cc2)cc1F` [Example 2, 4-[5-(3-Fluoro-4-methoxyphenyl)-3-(difluoromethyl)-1H-pyrazol-1-yl]benzenesulfonamide], the “Skin Graft Rejection Time, Ex. #1 Rejection” value turned out to be 15.7 days and the “Skin Graft Rejection Time, Ex. #3 Rejection” value is 17.3 days.

In the case of `CC(C#Cc1ccc(Oc2ccc(F)cc2)o1)N(O)C(N)=O` (stereo not shown) [Example 3, N′-[3-[5-(4-Fluorophenoxy)furyl-2-yl]-1-methyl-2-propynyl]-N′-hydroxyurea], the “Skin Graft Rejection Time, Ex. #1 Rejection” value turned out to be 15.0 days and the “Skin Graft Rejection Time, Ex. #3 Rejection” value worked out at 17.0 days.
